The values below are quoted from earlier work in publication PMC3791449, “Mechanism of amyloid β−protein dimerization determined using single−molecule AFM force spectroscopy” (Scientific Reports, 2013).

In the data set the test system is Aβ(13−23) dimer. The settings on record: antiparallel β−sheet structures; cited from earlier work.

As to “Aβ(13−23): Aβ(13−23) peptide of published MD simulations (HHQKLVFFAED; Amyloid-beta protein 42; UniProt P05067 684-694, looked up, fragment)”, the “dimer stability by MD simulation” value is on record as “high dimer stability”.
